Assay results from US10081631B2, “2-(1H-indazol-3-yl)-1H-imidazo[4,5-C]pyridine and therapeutic uses thereof” (Samumed, LLC, priority 2014, dated 2018).
pEC50, pIC50: −log10 of the molar value.

What was measured:
[1] = tested on: Wnt activity (Sp5-Luc reporter, SW480 colon carcinoma cells); assay: Screening assay for Wnt activity: Sp5-Luc reporter gene assay in SW480 cells; format: cell-based; details: Homo sapiens, 42 h incubation, luminescence
Outline: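 IC50 values come from variable-slope four-parameter fits of luciferase signal normalized to DMSO wells. Stable Sp5-Luc reporter SW480 colon carcinoma cells were exposed to compounds in a 3-fold dilution series (source plates from 10 mM stock) for forty-two hours at 37 °C.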

[2] = tested on: primary human fibroblasts derived from IPF patients (LL29 cells); assay: Inhibition of fibrosis: TGF-β1-treated primary human fibroblasts from IPF patients (LL29), αSMA staining; format: cell-based; details: Fibroblast, 96 h, TGF-β1 20 ng/mL, 4 days, % αSMA-positive cells
Description: The above synthesized compounds were screened using primary human fibroblasts (derived from IPF patients) treated with TGF-β1 to determine their ability to inhibit the fibrotic process.
Primary human fibroblasts derived from IPF patients (LL29 cells) [^1Xiaoqiu Liu, et. al., “Fibrotic Lung Fibroblasts Show Blunted Inhibition by cAMP Due to Deficient cAMP Response Element-Binding Protein Phosphorylation”, Journal of Pharmacology and Experimental Therapeutics (2005), 315(2), 678-687; ^2Watts, K. L., et. al., “RhoA signaling modulates cyclin D1 expression in human lung fibroblasts; implications for idiopathic pulmonary fibrosis”, Respiratory Research (2006), 7(1), 88] were obtained from American Type Culture Collection (ATCC) and expanded in F12 medium supplemented with 15% Fetal Bovine Serum and Penicillin/Streptomycin.
Each compound was dissolved in DMSO as a 10 mM stock and used to prepare compound source plates. Serial dilution (1:2, 11-point dose-response curves from 10 μM to 1.87 nM) and compound transfer was performed using the ECHO 550 (Labcyte, Sunnyvale, Calif.) into 384-well clear bottom assay plates (Greiner Bio-One) with appropriate DMSO backfill for a final DMSO concentration of 0.1%. LL29 cells were plated at 1,500 cells/well in 80 μl/well F12 medium supplemented with 1% Fetal Bovine Serum. One hour after addition of the cells, TGF-β1 (Peprotech; 20 ng/mL) was added to the plates to induce fibrosis (ref 1 and 2 above). Wells treated with TGF-β1 and containing DMSO were used as controls. Cells were incubated at 37° C. and 5% CO2 for 4 days. Following incubation for 4 days, SYTOX green nucleic acid stain (Life Technologies [Thermo Fisher Scientific]) was added to the wells at a final concentration of 1 uM and incubated at room temperature for 30 min. Cells were then fixed using 4% formaldehyde (Electron Microscopy Sciences), washed 3 times with PBS followed by blocking and permeabilization using 3% Bovine Serum Albumin (BSA; Sigma) and 0.3% Triton X-100 (Sigma) in PBS. Cells were then stained with antibody specific to α-smooth muscle actin (αSMA; Abcam) (ref 1 and 2 above) in 3% Bovine Serum Albumin (BSA; Sigma) and 0.3% Triton X-100 (Sigma) in PBS, and incubated overnight at 4° C. Cells were then washed 3 times with PBS, followed by incubation with Alexa Flor-647 conjugated secondary antibody (Life Technologies [Thermo Fisher Scientific]) and DAPI at room temperature for 1 hour. Cells were then washed 3 times with PBS and plates were sealed for imaging. αSMA staining was imaged by excitation at 630 nm and emission at 665 nm and quantified using the Compartmental Analysis program on the CellInsight CX5 (Thermo Scientific). Dead or apoptotic cells were excluded from analysis based on positive SYTOX green staining. % of total cells positive for αSMA were counted in each well and normalized to the average of 11 wells treated with TGF-β1 on the same plate using Dotmatics' Studies Software. The normalized averages (fold change over untreated) of 3 replicate wells for each compound concentration were used to create dose-responses curves and EC50 values were calculated using non-linear regression curve fit in the Dotmatics' Studies Software. The EC50 values are reported.

Compound | pIC50 [1] | pEC50 [2]
c1ccc(-c2nccc3[nH]c(-c4n[nH]c5ccc(-c6cncc(CNCC7CCCC7)c6)cc45)nc23)nc1 [Compound 154, 1-Cyclopentyl-N-((5-(3-(4-(pyridin-2-yl)-1H-imidazo[4,5-c]pyridin-2-yl)-1H-indazol-5-yl)pyridin-3-yl)methyl)methanamine] | 7.21 | 7.21
CCC(=O)Nc1cncc(-c2ccc3[nH]nc(-c4nc5c(N6CCCCC6)nccc5[nH]4)c3c2)c1 [Compound 157, N-(5-(3-(4-(Piperidin-1-yl)-1H-imidazo[4,5-c]pyridin-2-yl)-1H-indazol-5-yl)pyridin-3-yl)propionamide] | 6.74 | 7.15
CN(C)c1cncc(-c2ccc3[nH]nc(-c4nc5c(N6CCCCC6)nccc5[nH]4)c3c2)c1 [Compound 163, N,N-Dimethyl-5-(3-(4-(piperidin-1-yl)-1H-imidazo[4,5-c]pyridin-2-yl)-1H-indazol-5-yl)pyridin-3-amine] | 8.52 | 5.81
CN(C)Cc1cncc(-c2ccc3[nH]nc(-c4nc5c(N6CCCCC6)nccc5[nH]4)c3c2)c1 [Compound 169, N,N-Dimethyl-1-(5-(3-(4-(piperidin-1-yl)-1H-imidazo[4,5-c]pyridin-2-yl)-1H-indazol-5-yl)pyridin-3-yl)methanamine] | 5.40 | 6.77
O=C(Nc1cncc(-c2ccc3[nH]nc(-c4nc5c(N6CCCCC6)nccc5[nH]4)c3c2)c1)C1CC1 [Compound 175, N-(5-(3-(4-(Piperidin-1-yl)-1H-imidazo[4,5-c]pyridin-2-yl)-1H-indazol-5-yl)pyridin-3-yl)cyclopropanecarboxamide] | 6.56 | 6.94
FC1(F)CCN(Cc2cncc(-c3ccc4[nH]nc(-c5nc6c(N7CCCCC7)nccc6[nH]5)c4c3)c2)C1 [Compound 181, 2-(5-(5-((3,3-Difluoropyrrolidin-1-yl)methyl)pyridin-3-yl)-1H-indazol-3-yl)-4-(piperidin-1-yl)-1H-imidazo[4,5-c]pyridine] | 7.17 | 7.09
Cc1cn(-c2nccc3[nH]c(-c4n[nH]c5ccc(-c6cncc(NC(=O)CC(C)C)c6)cc45)nc23)cn1 [Compound 184, 3-Methyl-N-(5-(3-(4-(4-methyl-1H-imidazol-1-yl)-1H-imidazo[4,5-c]pyridin-2-yl)-1H-indazol-5-yl)pyridin-3-yl)butanamide] | 8.70 | 7.31
Cc1cn(-c2nccc3[nH]c(-c4n[nH]c5ccc(-c6cncc(NC(=O)C(C)(C)C)c6)cc45)nc23)cn1 [Compound 190, N-(5-(3-(4-(4-Methyl-1H-imidazol-1-yl)-1H-imidazo[4,5-c]pyridin-2-yl)-1H-indazol-5-yl)pyridin-3-yl)pivalamide] | 8.30 | 7.30
Cc1cn(-c2nccc3[nH]c(-c4n[nH]c5ccc(-c6cncc(NC(=O)C7CCC7)c6)cc45)nc23)cn1 [Compound 202, N-(5-(3-(4-(4-Methyl-1H-imidazol-1-yl)-1H-imidazo[4,5-c]pyridin-2-yl)-1H-indazol-5-yl)pyridin-3-yl)cyclobutanecarboxamide] | > 9.00 | 7.89
CC(C)C(=O)Nc1cncc(-c2ccc3[nH]nc(-c4nc5c(N6CCN(C)CC6)nccc5[nH]4)c3c2)c1 [Compound 217, N-(5-(3-(4-(4-Methylpiperazin-1-yl)-1H-imidazo[4,5-c]pyridin-2-yl)-1H-indazol-5-yl)pyridin-3-yl)isobutyramide] | 6.61 | 5.35
CN1CCN(c2nccc3[nH]c(-c4n[nH]c5ccc(-c6cncc(CN7CCCCC7)c6)cc45)nc23)CC1 [Compound 223, 4-(4-Methylpiperazin-1-yl)-2-(5-(5-(piperidin-1-ylmethyl)pyridin-3-yl)-1H-indazol-3-yl)-1H-imidazo[4,5-c]pyridine] | 6.76 | 5.95
CN1CCN(c2nccc3[nH]c(-c4n[nH]c5ccc(-c6cncc(NC(=O)CC(C)(C)C)c6)cc45)nc23)CC1 [Compound 224, 3,3-Dimethyl-N-(5-(3-(4-(4-methylpiperazin-1-yl)-1H-imidazo[4,5-c]pyridin-2-yl)-1H-indazol-5-yl)pyridin-3-yl)butanamide] | 6.17 | 5.96
CN1CCN(c2nccc3[nH]c(-c4n[nH]c5ccc(-c6cncc(NC(=O)C7CCCC7)c6)cc45)nc23)CC1 [Compound 229, N-(5-(3-(4-(4-Methylpiperazin-1-yl)-1H-imidazo[4,5-c]pyridin-2-yl)-1H-indazol-5-yl)pyridin-3-yl)cyclopentanecarboxamide] | 6.15 | 5.00
CN1CCN(c2nccc3[nH]c(-c4n[nH]c5ccc(-c6cncnc6)cc45)nc23)CC1 [Compound 234, 4-(4-Methylpiperazin-1-yl)-2-(5-(pyrimidin-5-yl)-1H-indazol-3-yl)-1H-imidazo[4,5-c]pyridine] | 7.68 | 6.55
Cc1ccncc1-c1ccc2[nH]nc(-c3nc4c(-c5ccsc5)nccc4[nH]3)c2c1 [Compound 239, 2-(5-(4-Methylpyridin-3-yl)-1H-indazol-3-yl)-4-(thiophen-3-yl)-1H-imidazo[4,5-c]pyridine] | 8.52 | 7.22
CC(C)(C)C(=O)Nc1cncc(-c2ccc3[nH]nc(-c4nc5c(-c6ccsc6)nccc5[nH]4)c3c2)c1 [Compound 242, N-(5-(3-(4-(Thiophen-3-yl)-1H-imidazo[4,5-c]pyridin-2-yl)-1H-indazol-5-yl)pyridin-3-yl)pivalamide] | 7.56 | 5.93
O=C(Cc1ccccc1)Nc1cncc(-c2ccc3[nH]nc(-c4nc5c(-c6ccsc6)nccc5[nH]4)c3c2)c1 [Compound 244, 2-Phenyl-N-(5-(3-(4-(thiophen-3-yl)-1H-imidazo[4,5-c]pyridin-2-yl)-1H-indazol-5-yl)pyridin-3-yl)acetamide] | 7.16 | 6.69
O=C(Nc1cncc(-c2ccc3[nH]nc(-c4nc5c(-c6ccsc6)nccc5[nH]4)c3c2)c1)c1ccccc1 [Compound 245, N-(5-(3-(4-(Thiophen-3-yl)-1H-imidazo[4,5-c]pyridin-2-yl)-1H-indazol-5-yl)pyridin-3-yl)benzamide] | 7.40 | 7.77
CCCC(=O)Nc1cncc(-c2ccc3[nH]nc(-c4nc5c(-c6ccsc6)nccc5[nH]4)c3c2)c1 [Compound 251, N-(5-(3-(4-(Thiophen-3-yl)-1H-imidazo[4,5-c]pyridin-2-yl)-1H-indazol-5-yl)pyridin-3-yl)butyramide] | 9.00 | 7.74
O=C(Nc1cncc(-c2ccc3[nH]nc(-c4nc5c(-c6ccsc6)nccc5[nH]4)c3c2)c1)C1CC1 [Compound 253, N-(5-(3-(4-(Thiophen-3-yl)-1H-imidazo[4,5-c]pyridin-2-yl)-1H-indazol-5-yl)pyridin-3-yl)cyclopropanecarboxamide] | 6.90 | 6.26
O=C(Nc1cncc(-c2ccc3[nH]nc(-c4nc5c(-c6ccsc6)nccc5[nH]4)c3c2)c1)C1CCCC1 [Compound 255, N-(5-(3-(4-(Thiophen-3-yl)-1H-imidazo[4,5-c]pyridin-2-yl)-1H-indazol-5-yl)pyridin-3-yl)cyclopentanecarboxamide] | 7.23 | 5.91
c1ccc(CNCc2cncc(-c3ccc4[nH]nc(-c5nc6c(-c7ccsc7)nccc6[nH]5)c4c3)c2)cc1 [Compound 257, N-Benzyl-1-(5-(3-(4-(thiophen-3-yl)-1H-imidazo[4,5-c]pyridin-2-yl)-1H-indazol-5-yl)pyridin-3-yl)methanamine] | 8.15 | 8.05
CCNCc1cncc(-c2ccc3[nH]nc(-c4nc5c(-c6ccoc6)nccc5[nH]4)c3c2)c1 [Compound 266, N-((5-(3-(4-(Furan-3-yl)-1H-imidazo[4,5-c]pyridin-2-yl)-1H-indazol-5-yl)pyridin-3-yl)methyl)ethanamine] | 7.44 | 8.05
